{"source": "patent US20260306463A1", "about": "“SIK INHIBITORS TO TREAT CHRONIC KIDNEY DISEASE” (The General Hospital Corporation, priority 2023, published 2026)", "key": {"[1]": {"tested_on": "renal fibrosis, adenine-induced CKD mice", "test": "renal fibrosis in adenine CKD mice (trichrome, immunoblot, RT-qPCR)", "assay_type": "in vivo, mouse", "protocol": "FIGS. 3A-3C. SK-124 treatment reduces fibrosis in adenine-induced chronic kidney disease. (A) Representative trichrome stained sections from the indicated groups. Darker staining indicates fibrosis which is increased in vehicle-treated adenine diet mice and reduced by SK-124 treatment. (B) Kidney protein lysates were isolated and analyzed by immunoblotting for alpha-smooth muscle actin (αSMA) (top) and GAPDH (bottom). (C) Whole kidney RNA from the indicated groups was analyzed by RT-qPCR for the indicated fibrosis marker.\n7-week-old female CD1 mice were obtained from Charles River Laboratories (Wilmington, MA) and were fed on 0.2% adenine containing diet (TD.130900; 0.2% Adenine, 0.9% Phosphate, 0.5% Calcium; Envigo) or control diet (TD. 96348) for 6 or 8 weeks to induce chronic kidney disease (CKD). Mice were oral gavaged with 40 mg/kg SK-124, or intraperitonially injected with 80 μg/kg PTH, or treated with vehicle 5 days a week for the duration of the special diet.\ncDNA was prepared using Primescript RT kit (Takara Inc), with 750 ng RNA per reaction. RT-qPCR was performed by using PerfeCa® SYBR® Green FAstMix® ROX (Quanta bio) in the StepOnePlus™ Real-time PCR System (Applied Biosystems). Hmbs was used as a control housekeeping gene for mouse samples, and B-Actin was used for organoids, relative expression was calculated (2^-deltaCT method) and compared to the mean of control group if necessary. Primers used for RT-qPCR are listed in Table 2 (mouse primers) and Table 3 (human primers).\nSnap-frozen kidneys were homogenized in NP-40 lysis buffer (FNN0021, Thermo) with using TissueLyserII at 30 Hz for 5 minutes. Samples were rotated at 4 deg for 20 minutes and frozen on dry ice and thawed. After centrifuging for 30 minutes at 4 deg, the supernatants were collected. After determining the protein concentration by Bradford assay, […] of protein was loaded for western blotting. For KGli cells, the cells were washed with cold PBS then scraped into TNT buffer (Tris-NaCl-Tween buffer, 20 mM Tris-HCl pH 8, 200 mM NaCl, 0.5% Triton X-100 containing 1X-protease inhibitor cocktail (Bimake Inc. 100X, Cat. #B14001), 1 mM DTT, 1 mM NaF, 1 mM Vanadate (New England Biolabs)). Next, samples were vortexed for 1 minute and centrifuged at 14,000g for 6 minutes at 4 deg, and the supernatant was collected.\nFor immunoblotting, the lysates were separated by SDS-PAGE (Bio-rad precast gels), and proteins were transferred to the nitrocellulose membranes. Then, the membranes were blocked in 5% milk in tris-buffered saline plus 0.05% Tween-20 (TBST) and incubated with primary antibody in 5% BSA-TBST overnight at 4° C. Next day, after washing, membranes were incubated with anti-rabbit HRP-coupled secondary antibody (1:2500, Cell Signaling Technology, 7074S) or anti-mouse HRP-coupled secondary antibody (1:2500, Cell Signaling, 7076S), and signals were detected with SuperSignal West Femto Maximum Sensitivity Substrate (Thermo scientific) using the iBright imager (ThermoFisher). The antibodies used are: SIK2 (1:1000, Cell Signaling, 6919), GAPDH (1:1000, Cell Signaling, 2118), αSMA (1:1000, Invitrogen, 14-9760-82), pSMAD3 (1:1000, Cell Signaling, 9520), and SMAD⅔ (1:1000, Cell Signaling, 8685).\nHematoxylin and eosin (H+E) staining was performed on some sections using standard protocols and Masson's Trichome stain for fibrosis was performed according to the manufacturer's instructions (ab150686, abcam). Formalin-fixed paraffin embedded sections were also used for in situ hybridization according to the manufacturer instructions (ACDbio). Briefly, the sections were blocked with hydrogen peroxide for 10 minutes at room temperature, followed by antigen retrieval with Pepsin (R2283, Sigma-Aldrich) in humidified chamber in 40° C. HybEZ oven. The Sik1 (526411, ACD), Sik2 (526421, ACD), or Sik3 (526431, ACD) probe was added to the sections for 2 hours in the humidified chamber at 40° C. Then, the signal was amplified (322310, ACD) and detected using Brown DAB kit (322310, ACD). […]"}, "kidney cell clusters": {"tested_on": "kidney cell clusters", "test": "single cell RNA-sequencing of dissociated kidneys, adenine CKD mice", "assay_type": "in vivo, mouse", "conditions": "SK-124 vs vehicle, adenine diet", "protocol": "FIGS. 6A-6F. The effects of SK-124 treatment at the transcriptomic level in adenine-induced mouse chronic kidney disease. RNA-seq was performed on whole kidney RNA samples (n=7/group) from FIG. 1. Volcano plot show gene regulated (>2-fold change, p(adj)<0.05) by CKD (versus control diet, A) or in CKD by SK-124 (versus vehicle control, B). In Volcano plot, representative fibrosis markers (Col3a1, Vim, Serpinel) and proximal tubule integrity (Lrp2. Atplai, and Hnf4a) are shown. Scatterplot (C) and heatmap (D) showing integration of individual RNA-seq comparisons. […] (E) Single cell RNA-sequencing was performed on dissociated kidneys from adenine diet fed mice treated with vehicle or SK-124 (n=4/group). […] (F) Relative cellularity of each annotated cluster is shown in pie chart format for adenine+vehicle (CKD-Veh) or adenine+SK-124 (CKD-SK-124) mice.\nTo perform single cell RNA sequencing, mouse kidneys were harvested and immediately dissociated in liberase TH (Millipore Sigma, 05401135001) at 37 degrees for 1 hour at 600 rpm. After removing red blood cells using red blood cell lysis buffer (Sigma, R7757), the cells were further dissociated in Accumax (Stemcell Technologies, 7921) and submitted to MGH Department of Molecular Biology for gel beads in emulsion (GEM) formation and subsequent single cell RNA sequencing using the 10× Genomics Chromium 3′ droplet-based sequencing platform. The CellRanger toolkit (v6.0.2) by 10× Genomics was used to 1) align the sequencing reads to the mouse reference transcriptome (mm10). 2) quantify gene expression, resulting in gene-by-cell UMI count matrices, and 3) aggregate all samples into a single feature barcode matrix containing all the data for downstream analysis. All single cell data analysis was performed in the R software environment for statistical computing and graphics using the package Seurat."}}, "note": "“Also recorded” adds a separate entry of the source.", "data": [{"smiles": "CCc1nnc(-c2c(OC)cc(-c3cnc4cc(-c5cnn(C)c5)ccn34)cc2OC)o1", "note": "[SK-124, 2-[2,6-Dimethoxy-4-[7-(1-methylpyrazol-4-yl)imidazo[1,2-a]pyridin-3-yl]phenyl]-5-ethyl-1,3,4-oxadiazole]", "values": [{"measurement": "fibrosis (trichrome staining)", "setting": "[1]; adenine diet, SK-124 40 mg/kg oral, 40 mg/kg", "result": "reduced fibrosis"}, {"measurement": "αSMA protein", "setting": "[1]; kidney lysates, immunoblot", "result": "reduced"}, {"measurement": "Colla1 mRNA", "setting": "[1]; whole kidney RNA, RT-qPCR", "result": "reduced"}, {"measurement": "Vimentin (Vim) mRNA", "setting": "[1]; whole kidney RNA, RT-qPCR", "result": "reduced"}, {"measurement": "αSMA mRNA", "setting": "[1]; whole kidney RNA, RT-qPCR", "result": "reduced"}, {"measurement": "fibroblast cluster cellularity", "setting": "kidney cell clusters", "result": "reduces fibroblast cluster cellularity"}, {"measurement": "injury markers (failed repair proximal tubule cells, fibroblasts, and myofibroblasts)", "setting": "kidney cell clusters", "result": "reduced injury markers"}, {"measurement": "numbers of healthy proximal tubule (epithelial) cells", "setting": "kidney cell clusters", "result": "increases numbers of healthy epithelial cells; also recorded: increased numbers of healthy proximal tubule cells"}]}]}
